Details of data set [1]: method as in Russmann et al. [2005]. As to conditions: patients; ref Russmann et al. [2005]; cited from earlier work.
Data set [2] concerns primary human hepatocytes (PHH). As to the kind of experiment: Cytotoxicity (cellular ATP, CellTiter-Glo) in 2D plated primary human hepatocytes, 48 h treatment.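 Note: 384-well plates, luminescence read-out, normalized to vehicle wells with 1% DMSO.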 It counts as cell-based. The conditions noted are these: Hepatocyte; 2D primary human hepatocytes (lot IZT), 48 h treatment, total cellular ATP content; read-out: Geomean IC50. (ATP-based viability assays read luminescence as a measure of living cells.)

The test system of data set [3] is 3D human liver microtissues (hLiMT). As to the kind of experiment: Cytotoxicity (cellular ATP, CellTiter-Glo 2.0) in 3D human liver microtissues, 14 day repeat-dose treatment. The conditions noted are these: Homo sapiens, 336 h.
For data set [4] the following is noted: ref Chen et al 2016 / Chen et al 2011; cited from earlier work.
For data set [5] the following is noted: cited from earlier work; for DILI category: clinical, from literature and product labels.
Data set [6] deals with 3D human liver microtissues (hLiMT). In words: Cytotoxicity (cellular ATP) in 3D human liver microtissues, 5-6 days treatment.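 Note: Hanging-drop spheroids, seven-point dilution series, re-dosed on day 3, CellTiter-Glo 2.0 luminescence, normalized to 0.5 or 1% DMSO vehicle controls on the same plate.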 It counts as cell-based. The conditions noted are these: Homo sapiens; hLiMT, 5/6 days, ATP content; read-out: IC50 SHORT.
For data set [7] the following is noted: cited from earlier work.
Data set [8] concerns 3D human liver microtissues (hLiMT). In words: HMGB1 levels in hLiMT supernatant (ELISA). The data set is classed as cell-based. As to conditions: 5 days exposure. The procedure:
Supernatants from single hLiMT (in triplicates) were analysed for HMGB1 content using IBLs ELISA assay using the high sensitive range test procedure. Briefly, 50 μL of the thawed cell-culture supernatants from single microtissues or diluted standards were incubated in the microtiter plate along with 50 μL of the diluent buffer for 20-24 h at 37 °C in the dark. The plate was then washed 5 times with 400 µL diluted wash buffer (1:5), blotted dry and 100 µL enzyme conjugate added. After incubation in the dark for 2 h at 25 °C the plate was washed 5 times with 400 µL diluted wash buffer, blotted dry and then 100 µL colour solution added. The plate was incubated for a further 30 min at room temperature prior to the addition of 100 µL stop solution. The absorbance was then determined at 450 nm using an EnVision® plate reader (PerkinElmer, Waltham, MA, USA) within 60 min. The concentration of HMGB1 in the samples was read off the high sensitivity range standard curve obtained from plotting the OD of the standards against the concentration (ng/L).

For data set [9] the test system is unchanged. As to the kind of experiment: alpha-GST release into hLiMT supernatant (ELISA). It counts as cell-based. The conditions noted are these: 336 h, 14 days, release into medium, read-out: IC50 (α-GST assay). A general note: An ELISA detects its analyte on a solid surface through an enzyme-linked reagent.
Data set [10] has the same test system. In words: miR-122 levels in hLiMT supernatant (qRT-PCR). The data set is classed as cell-based. The conditions noted are these: 5 days exposure. The procedure:
miRNA extraction miRNA was extracted using a miRNeasy kit, following the manufacturer's instructions, and as described by Starkey et al. 2016 with minor modifications. Thirty-eight µL thawed hLiMT supernatant was mixed with 162 µL nuclease-free water and 700 µL QIAzol reagent and then incubated for 5 min at room temperature. Chloroform (100 µL) was added, the samples shaken vigorously for 15 sec and then centrifuged at 12,000 g for 15 min at 4 °C. The supernatant was then mixed with 500 µL 70% ethanol and transferred to a miRNeasy minispin column. The column was centrifuged at >8000 g for 15 sec. The elute was then purified using a MinElute kit
miRNA purification The small RNA elution mixture was applied to the MinElute column 700 µL at a time. […]
qRT-PCR One µl thawed cDNA was mixed with 19 µl miR-122 or cel-lin4 PCR reaction master mix containing 1 µL Taqman^TM miR-122 or cel-lin4 primer small RNA assay (20X), 10 µl Taqman^TM universal PCR master mix II (2X) and 8 µL nuclease free water. Levels of miRNA were measured by the fluorescent signal produced from the Taqman probes on an ABI Prism 7000 (Applied Biosystems). miRNA levels were normalized to levels of cel-lin4 miRNA. Relative miRNA production was determined with the ΔCt method and reported as 2−ΔCt, where Ct is the threshold cycle. Differences in miRNA concentration were expressed as fold changes relative to control.
Background: Quantitative PCR measures a nucleic acid by following its amplification.

Where [11] appears, read: Hepatocyte, read-out: Geomean IC50 [µM].
[12] abbreviates: Table 1, ref Garside et al. (2014).
[13] abbreviates: clinical DILI severity category, 1-5.
Where [14] appears, read: table S-4, ref Garside et al. 2014.
[15] abbreviates: human Cmax total, used for IC50/Cmax.
Where [16] appears, read: human total plasma Cmax, ref literature values.

Like-named read-outs stand apart in the source and are kept apart here.

These results are taken from article PMC5515971, “Utility of spherical human liver microtissues for prediction of clinical drug-induced liver injury” (Archives of Toxicology, 2017).

Take `CC(C)c1nc(N(C)S(C)(=O)=O)nc(-c2ccc(F)cc2)c1/C=C/[C@@H](O)C[C@@H](O)CC(=O)O` [Rosuvastatin]: the “mild, transient elevations of plasma enzyme levels” value in data set [1] was 1–3%. Further, the half-maximal inhibitory concentration (IC50) in [2] is greater than 100 µM; in data set [3] (setting [11]), 7.8 µM; in [6], 34.2 µM. Further, the “FDA DILI Classification DILI severity score” value in data set [4] is 3. The “LTKB DILI classification” value in [4] was “less DILI concern”. Further, the DILI severity category in data set [5] (setting [12]) is 3: Low clinical DILI concern (N = 23); in [5] (setting [13]), 3. Low Clinical DILI Concern; in [5] (setting [14]), 3. Besides, the DILI category in [5] (ref Garside et al. 2014) is given as 3. Low Clinical DILI Concern. The Cmax in data set [7] (setting [15]) and in data set [7] (setting [16]) was 10 nM each time.
Regarding `CN(C)CCCN1c2ccccc2Sc2ccc(Cl)cc21` [Chlorpromazine], the “release of HMGB1” value in data set [8] is “dose-dependent release”. Besides, the concentration for half-maximal inhibition (IC50) in data set [2] is 19.2 µM; in [3] (read-out: IC50 (ATP-assay)), 7 µM; in data set [3] (read-out: IC50 LONG) it was 7.1 µM; in data set [3] (setting [11]) it was roughly 7.4 µM; in data set [9], 45.4 µM; in [6] it was 10.9 µM. In addition, in data set [4], the “FDA DILI Classification DILI severity score” value is recorded as 2. For the same compound, the “LTKB DILI classification” value in data set [4] is listed as “less DILI concern”. Further, the DILI severity category is 3: Low clinical DILI concern (N = 23) in data set [5] (setting [12]); 3. Low Clinical DILI Concern in data set [5] (setting [13]); 3 in data set [5] (setting [14]); 3. Low Clinical DILI Concern in data set [5] (table S-5, ref Garside et al. 2014). Further, the DILI category in data set [5] (ref Garside et al. 2014) is listed as 3. Low Clinical DILI Concern. Also, in data set [10], the “release of miR-122” value is given as “dose-dependent release”. Moreover, the highest concentration (Cmax) in data set [7] (setting [15]) and in data set [7] (setting [16]) was 940 nM in each case.

By IC50 is commonly meant the midpoint of a concentration-inhibition curve. As usually defined, the Cmax is the maximum level reached in the sampled fluid or tissue.
